The record followed here is ChEMBL document CHEMBL1201862, “PubChem BioAssay data set” (2004).

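1) Cells in 96-well plates. 2) Compound, 48 h, 5 concentrations. 3) Linear interpolation between surrounding doses. 4) Unreached endpoint = highest concentration. Here, GI50 denotes the concentration required for 50% inhibition of growth.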 Calls of active or inactive are those of the source. Cut-off read from the data, not from the text of the source: active = GI50 up to about 1.1 µM and inactive = higher.

Test systems include SW-620; Malme-3M; SR; 786-0; SNB-75; K562; U-251; OVCAR-4; HCC 2998; LOX IMVI; SN12C; SF-539; NCI-H23; OVCAR-3; COLO 205; OVCAR-8; HOP-62; RPMI-8226; EKVX; UACC-62.
Common to all, as to assay: NCI tumour cell line growth inhibition, 48 h

For `FC(F)(F)c1cccc(-c2nc3nc(Cl)c(Cl)nc3[nH]2)c1`, the GI50 with SW-620 is 3.72 µM (inactive); in the experiment on Malme-3M, 1.73 µM (inactive); in the experiment on SR it was 2.62 µM (inactive); in the experiment with 786-0, 3.77 µM (inactive); in the experiment on SNB-75, 2.42 µM (inactive); with K562 it was 1.74 µM (inactive). The GI50 with U-251 is 1.85 µM (inactive); in the experiment on OVCAR-4, 2.28 µM (inactive); with HCC 2998 it was 3.11 µM (inactive); with LOX IMVI it was 2.92 µM (inactive); in the experiment with SN12C it was 2.69 µM (inactive); with SF-539, 3.15 µM (inactive). Also, the GI50 was 1.47 µM (inactive) in the experiment with NCI-H23; 1.59 µM (inactive) in the experiment on OVCAR-3; 1.45 µM (inactive) in the experiment with COLO 205; 3.06 µM (inactive) with OVCAR-8; 3.22 µM (inactive) with HOP-62; 0.426 µM (active) with RPMI-8226. Also, the GI50 was 2.96 µM (inactive) in the experiment on EKVX and 0.562 µM (active) in the experiment with UACC-62.
With `O=C(CC1(O)C(=O)Nc2c(Cl)ccc(Cl)c21)c1ccc2ccccc2c1` (stereo not given), the GI50 in the experiment on SW-620 was 3.36 µM (inactive); in the experiment with Malme-3M, 12.5 µM (inactive); in the experiment on SR, 3.21 µM (inactive); in the experiment on 786-0, 6.25 µM (inactive); in the experiment with SNB-75, 14.2 µM (inactive); with K562, 2.35 µM (inactive). In addition, the GI50 in the experiment on U-251 is 4.76 µM (inactive); in the experiment with OVCAR-4 it was 2.29 µM (inactive); in the experiment on HCC 2998, 13.1 µM (inactive); with LOX IMVI it was 11.2 µM (inactive); with SN12C, 16.4 µM (inactive); with SF-539, 13.5 µM (inactive). Besides, the GI50 is 10.4 µM (inactive) in the experiment with NCI-H23; 4.17 µM (inactive) in the experiment on OVCAR-3; 14.9 µM (inactive) with COLO 205; 15.5 µM (inactive) with OVCAR-8; 29 µM (inactive) with HOP-62; 6.75 µM (inactive) in the experiment on RPMI-8226. Further, the figures for the GI50 in the experiment with EKVX and in the experiment with UACC-62 were 15.8 µM (inactive) and 3.24 µM (inactive), respectively.
`c1ccc2c(c1)CCc1c-2n(CCN2CCCCC2)c2ccccc12`: the GI50 in the experiment with SW-620 was 20.8 µM (inactive); in the experiment with Malme-3M it was 24.7 µM (inactive); in the experiment on SR it was 8.81 µM (inactive); in the experiment with 786-0, 16.3 µM (inactive); in the experiment with SNB-75 it was 16.4 µM (inactive); with K562, 9.75 µM (inactive). Moreover, the GI50 in the experiment with U-251 was 14.3 µM (inactive); in the experiment on OVCAR-4, 18.8 µM (inactive); in the experiment on HCC 2998 it was 13.1 µM (inactive); in the experiment with LOX IMVI, 15.1 µM (inactive); in the experiment on SN12C it was 17.3 µM (inactive); with SF-539, 12.9 µM (inactive). In addition, the GI50 is 17.7 µM (inactive) in the experiment on NCI-H23; 16.6 µM (inactive) with OVCAR-3; 11.8 µM (inactive) with COLO 205; 17.7 µM (inactive) in the experiment on OVCAR-8; 15.8 µM (inactive) in the experiment with HOP-62; 10.3 µM (inactive) in the experiment on RPMI-8226. Further, the GI50 with EKVX is 20.4 µM (inactive); in the experiment with UACC-62, 14.8 µM (inactive).
On to `O=[N+]([O-])c1ccc(C2=NOC(c3ccc(Cl)cc3)N2C23CC4CC(CC(C4)C2)C3)cc1` (stereo not given), for which the GI50 with SW-620 was > 100 µM (inactive); with Malme-3M, > 100 µM (inactive); in the experiment on SR, 67.9 µM (inactive); in the experiment with 786-0, > 100 µM (inactive); in the experiment with SNB-75, > 100 µM (inactive); in the experiment with K562, > 100 µM (inactive). Moreover, the GI50 with U-251 is > 100 µM (inactive); with OVCAR-4 it was > 100 µM (inactive); with HCC 2998 it was 64.1 µM (inactive); with LOX IMVI, > 100 µM (inactive); with SN12C, > 100 µM (inactive); with SF-539, > 100 µM (inactive). In addition, the GI50 in the experiment on NCI-H23 was > 100 µM (inactive); in the experiment with OVCAR-3, > 100 µM (inactive); in the experiment on COLO 205 it was > 100 µM (inactive); in the experiment on OVCAR-8, > 100 µM (inactive); in the experiment with HOP-62, > 100 µM (inactive); in the experiment on RPMI-8226 it was 15.5 µM (inactive). Also, the GI50 in the experiment with EKVX and in the experiment with UACC-62 was > 100 µM (inactive) in each case.
With `[O-][Cl+3]([O-])([O-])[O-].c1ccc(-c2csc3c4ccccc4c4ccccc4[n+]23)cc1`, the GI50 in the experiment with SW-620 is 3.5 µM (inactive); with Malme-3M it was 1.58 µM (inactive); in the experiment with SR, 4.99 µM (inactive); in the experiment with 786-0 it was 4.85 µM (inactive); with SNB-75, 2.35 µM (inactive); with K562, 0.708 µM (active). For the same molecule, the GI50 in the experiment with U-251 is 2.45 µM (inactive); in the experiment on OVCAR-4 it was 3.96 µM (inactive); in the experiment on HCC 2998, 1.54 µM (inactive); with LOX IMVI, 4.58 µM (inactive); with SN12C, 1.65 µM (inactive); in the experiment on SF-539 it was 3.25 µM (inactive). Further, the GI50 in the experiment on NCI-H23 is 0.553 µM (active); with OVCAR-3 it was 0.897 µM (active); in the experiment on COLO 205 it was 2.25 µM (inactive); in the experiment with OVCAR-8 it was 2.59 µM (inactive); in the experiment on HOP-62 it was 7.1 µM (inactive); in the experiment on RPMI-8226, 4.55 µM (inactive). The GI50 in the experiment with EKVX was 8.79 µM (inactive); with UACC-62, 1.88 µM (inactive).
In the case of `COC(=O)C(Cc1nc2ccc(Cl)cc2nc1O)C(=O)C(=O)Nc1cc(C)ccc1C` (stereo not given), the GI50 with SW-620, in the experiment on Malme-3M, with SR, in the experiment on 786-0, with SNB-75 and with K562 was > 100 µM (inactive) each time. In addition, the GI50 with U-251, in the experiment with OVCAR-4, in the experiment with HCC 2998, in the experiment with LOX IMVI, in the experiment on SN12C and in the experiment with SF-539 was > 100 µM (inactive) in each case. The GI50 in the experiment with NCI-H23, with OVCAR-3, in the experiment on COLO 205, in the experiment on OVCAR-8, with HOP-62 and in the experiment with RPMI-8226 was > 100 µM (inactive) throughout. In addition, the GI50 is 8.2 µM (inactive) in the experiment on EKVX and > 100 µM (inactive) in the experiment on UACC-62.
On to `O=C1CNNC(CSc2nc3ccc(I)cc3c(=O)n2Cc2ccccc2)=N1`, for which the GI50 with SW-620 is 42.4 µM (inactive); in the experiment with Malme-3M, 23.9 µM (inactive); with SR, 17.9 µM (inactive); in the experiment on 786-0, 29.9 µM (inactive); with SNB-75, 11.6 µM (inactive); with K562 it was 23.7 µM (inactive). Besides, the GI50 was 21.4 µM (inactive) with U-251; 37.4 µM (inactive) in the experiment on OVCAR-4; 27 µM (inactive) in the experiment on HCC 2998; 18.2 µM (inactive) with LOX IMVI; 17.1 µM (inactive) with SN12C; 22.5 µM (inactive) with SF-539. For the same molecule, the GI50 in the experiment on NCI-H23 is 31.6 µM (inactive); with OVCAR-3, 18.6 µM (inactive); in the experiment with COLO 205, 14.1 µM (inactive); in the experiment on OVCAR-8, 26.5 µM (inactive); in the experiment on HOP-62, 32.3 µM (inactive); in the experiment on RPMI-8226, 22.6 µM (inactive). In addition, the GI50 in the experiment with EKVX was 23.6 µM (inactive); in the experiment with UACC-62 it was 15.8 µM (inactive).
On to `S=C1N=C2C(=N1)n1c3c(c4ccccc41)CCCC23` (stereo not given), for which the GI50 was 32.4 µM (inactive) with SW-620; 64.9 µM (inactive) in the experiment with Malme-3M; 72.4 µM (inactive) in the experiment on SR; 15.5 µM (inactive) in the experiment with 786-0; > 100 µM (inactive) in the experiment with SNB-75; 33.1 µM (inactive) in the experiment with K562. Moreover, the GI50 with U-251 is 35 µM (inactive); in the experiment with OVCAR-4, 67.5 µM (inactive); in the experiment on HCC 2998, > 100 µM (inactive); with LOX IMVI, 14.6 µM (inactive); in the experiment with SN12C it was 29.4 µM (inactive); in the experiment with SF-539 it was 43.3 µM (inactive). Besides, the GI50 is 48.3 µM (inactive) in the experiment on NCI-H23; 52.4 µM (inactive) in the experiment with OVCAR-3; 42 µM (inactive) in the experiment with COLO 205; 32.1 µM (inactive) in the experiment with OVCAR-8; 46 µM (inactive) in the experiment on HOP-62; 30 µM (inactive) in the experiment with RPMI-8226. For the same molecule, the GI50 was > 100 µM (inactive) in the experiment on EKVX and 59.2 µM (inactive) with UACC-62.
